Measurements reported in patent publication US20180360940A1, “LISTERIA-BASED IMMUNOTHERAPY AND METHODS OF USE THEREOF” (priority 2015, published 2018).
Read-outs that look alike come from different tables or passages of the source.

Columns and labels:
TPSA23 tumor = TPSA23 tumor regression study, ADXS31-142 with or without ampicillin; format: in vivo, C57BL/6 male mice; settings: DP ADXS31-142 (PSA 1.0) IP, ampicillin 100 mg/kg IP at 4-hr, 6-hr, 24-hr
Method: FIG. 22A-B Results for ADXS31-142 therapy with our without early ampicillin treatment. TC1 tumor regression (FIG. 22A) and % survival (FIG. 22B).
A tumor regression study was initiated in C57BL/6 male mice using TPSA23 prostate cancer cells to assess the therapeutic efficacy of different Lm treatment with or without ampicillin treatment.
Tumor Inoculation: The tumor model used in this study is the TPSA23 tumor model. TPSA23 cells are cultured in complete medium. Complete medium for TPSA23 cells: 430 ml DMEM with Glucose, 45 ml FBS, 25 ml Nu-Serum IV, 5 ml L-Glutamine, 5 ml Na-bicarbonate, 0.005 mg/ml Bovine Insulin—Insulin stock (2.5 mg/ml) is prepared in acidified water (10 ml water+100 ul glacial acetic acid) (Add to the flask while splitting cells—6.4 uL/8 mLs media, 12.8 uL/16 mLs media, 19.2 uL/24 mLs media, etc.), and 10 nM Dehydroisoandrosterone (DHA)—DHA stock (10 mM) is prepared in ethanol. (Add to the flask while splitting cells—140 uL/70 mLs media, 70 uL/35 mLs media, 35 uL/17.5 mLs media, etc.). Two days prior to implanting tumor cells in mice, TPSA23 cells are sub-cultured in complete media. […] Cells were counted and re-suspended at a concentration of 2×10^6 cells/200 ul in PBS/mouse for injection. […] Tumors are measured twice a week until they reach a size of 12 mm in diameter. Once tumors met sacrifice criteria, mice were euthanized and tumors were excised and measured. […]

[1] = 10 mg/mL in sterile H2O, cited from earlier work
[2] = test system: PSA-specific and SIINFEKL-specific immunity; assay: PSA- and […]-specific CD8 T cells after PSA-SVN Tag with early antibiotics; format: in vivo, C57BL/6 mice; settings: PSA-SVN Tag IP, spleens day 7
Method: FIGS. 17A-D Results from early time point administration of ampicillin at 2 hours, 4 hours, and 6 hours post-Lm vaccine. % PSA specific CD8 T cells (FIG. 17A), % […] specific CD8 T cells (FIG. 17B), # of PSA specific CD8 cells (FIG. 17C), and # of […] specific CD8 cells (FIG. 17D).
FIGS. 18A-B Splenocytes from early gentamicin treatment at 2 hours, 4 hours, or 6 hours +ampicillin 24 hour chase of LM-PSA-SVN treated mice. % PSA specific CD8 T cells (FIG. 18A) and % […] specific CD8 T cells (FIG. 18B).
An assay was performed to examine the generation of […]-specific and PSA-specific immunity in mice treated with ampicillin or gentamicin/ampicillin and immunized with PSA-SVN Tag. The […]-specific immune response was detected by pentamer staining using the known T cell epitopes for C57BL/6 mice, H-2 Db PSA65-73 ([…]) and H-2 Kb OVA257-264 ([…]).
Prime-Harvest with Ampicillin: On Day 0, all groups were infected with PSA-SVN Tag LM IP, and then ampicillin was administered at 100 mg/kg IP at various time points from hour 2, 4, 6, 24. All Animals (except negative control) were given 1 dose of ampicillin at 24 hours. 7 days after Day 0 infection, mice were sacrificed and spleens were harvested and analyzed for specific T-cell epitopes to H-2 Db PSA65-73 ([…]) and H-2 Kb OVA257-264 ([…]). […]

TC-1 tumor = TC-1 tumor regression study, ADXS11-001 with or without ampicillin; format: in vivo, C57BL/6 female mice; settings: DP ADXS11-001 (HPV 1.0) IP, ampicillin 100 mg/kg IP at 4-hr, 6-hr, 24-hr
Method: FIG. 20A-B Results for ADXS11-001 therapy with our without early ampicillin treatment. TC1 tumor regression (FIG. 20A) and % survival (FIG. 20B).
A tumor regression study was initiated in C57BL/6 female mice using TC-1 lung epithelial cells to assess the therapeutic efficacy of different Lm treatment with or without ampicillin treatment and whether it alters the tumor microenvironment.
Tumor Inoculation: The tumor model used in this study is the TC-1 tumor model. TC-1 cells are cultured in complete medium. Complete medium for TC-1 cells: 450 ml RPMI 1640, 50 ml 10%FBS, 5 ml NEAA (100 uM), 5 ml L-Glutamine ([…]), and 5 ml Pen/strep (100 U/mL) penicillin+100 ug/mL streptomycin) G418 (400 ug/mL) (added to cells when splitting). Two days prior to implanting tumor cells in mice, TC-1 cells were sub-cultured in complete media. On the day of the experiment (Day 0), cells were trypsinized and washed twice with media. Cells were counted and re-suspended at a concentration of 1×10^5 cells/200 ul in PBS/mouse for injection. Tumor cells were injected subcutaneously in the right flank of each mouse. Tumors were measured twice a week until they reached a size of 12 mm in diameter. Once tumors met sacrifice criteria, mice were euthanized and tumors were excised and measured.
Vaccine/Ampicillin Treatment: On Day 6, when tumors are ˜5mm in size; vaccines and treatments began. […]

Compound | survival, difference between Lm treatment groups with or without ampicillin (TPSA23 tumor) | tumor regression, difference between Lm treatment groups with or without ampicillin (TPSA23 tumor) | solution stability [1] [days] | PSA specific and SIINFEKL specific CD8 T cells, difference between groups ([2]; ampicillin 100 mg/kg IP at 2, 4, 6 hours plus 24 hours) | survival, difference between Lm treatment groups with or without ampicillin (TC-1 tumor) | tumor regression, difference between Lm treatment groups with or without ampicillin (TC-1 tumor) | solution stability ([1]; 2-8 C) | solution stability ([1]; at 37 C) [days] | PSA specific and SIINFEKL specific CD8 T cells, difference between groups ([2]; gentamicin 5 mg/kg IP at 2, 4, 6 hours plus ampicillin 24 hour chase)
CC1(C)S[C@@H]2[C@H](NC(=O)[C@H](N)c3ccccc3)C(=O)N2[C@H]1C(=O)O [ampicillin] | No significant difference | No significant difference | 3 | No significant difference | No significant difference | No significant difference |  |  | 
gentamicin |  |  |  |  |  |  | months | 5 | No significant difference
